Target: SIK2 (Homo sapiens (Human), UniProt Q9H0K1)
Assay: SIK2 Enzymatic Assay Version 2 (High ATP)
Assay type: biochemical
Details: 3 mM ATP and 200 μM HDAC5tide final, ADP-Glo Max luminescence
Outline: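 Run at room temperature; SIK2 enzyme at 6 nM (2× final) preincubated with compound 30 min before reaction. ADP formation detected by ADP-Glo Max (2 h reagent, 1 h detection) with luminescence read-out.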

SIK2, sequence (Q9H0K1 whole entry, species assumed): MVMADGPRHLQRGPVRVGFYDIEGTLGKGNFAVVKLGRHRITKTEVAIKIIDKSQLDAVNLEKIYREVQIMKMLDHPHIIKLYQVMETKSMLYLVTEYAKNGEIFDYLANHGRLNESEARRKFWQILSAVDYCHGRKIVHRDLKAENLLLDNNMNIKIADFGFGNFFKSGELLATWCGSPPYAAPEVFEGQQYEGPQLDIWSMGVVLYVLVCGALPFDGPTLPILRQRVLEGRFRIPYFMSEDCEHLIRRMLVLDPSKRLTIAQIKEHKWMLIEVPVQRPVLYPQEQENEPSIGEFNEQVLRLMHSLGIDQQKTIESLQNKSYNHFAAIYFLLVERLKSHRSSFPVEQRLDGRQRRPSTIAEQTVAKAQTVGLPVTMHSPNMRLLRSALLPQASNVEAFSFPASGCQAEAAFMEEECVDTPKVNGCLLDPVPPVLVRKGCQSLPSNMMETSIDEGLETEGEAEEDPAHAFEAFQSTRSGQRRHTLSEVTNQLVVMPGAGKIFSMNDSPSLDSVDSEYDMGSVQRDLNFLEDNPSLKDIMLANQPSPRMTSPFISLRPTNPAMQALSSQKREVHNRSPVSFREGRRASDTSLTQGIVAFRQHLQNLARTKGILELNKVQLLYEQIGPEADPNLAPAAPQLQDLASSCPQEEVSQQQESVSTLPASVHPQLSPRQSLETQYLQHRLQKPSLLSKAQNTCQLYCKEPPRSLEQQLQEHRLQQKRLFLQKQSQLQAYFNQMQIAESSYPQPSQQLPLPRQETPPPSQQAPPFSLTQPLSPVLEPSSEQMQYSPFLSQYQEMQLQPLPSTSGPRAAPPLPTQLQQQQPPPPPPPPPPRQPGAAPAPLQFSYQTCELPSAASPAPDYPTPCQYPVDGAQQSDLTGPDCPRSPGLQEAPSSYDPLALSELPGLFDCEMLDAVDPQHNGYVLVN

SMILES | IC50 [nM]
Cn1ncc(O[C@H]2C[C@H]3COC[C@@H](C2)N3)c1-c1ccn2nc(NC(=O)C3CC3)cc2c1 [Example 313, N-[5-[2-methyl-4-[[(1R,5S)-3-oxa-9-azabicyclo[3.3.1]nonan-7-yl]oxy]pyrazol-3-yl]pyrazolo[1,5-a]pyridin-2-yl]cyclopropanecarboxamide] | 29.6
COC1(COc2noc(C)c2-c2ccn3nc(Nc4cnccn4)cc3c2)CNC1 [Example 318, 5-[3-[(3-methoxyazetidin-3-yl)methoxy]-5-methyl-isoxazol-4-yl]-N-pyrazin-2-yl-pyrazolo[1,5-a]pyridin-2-amine] | 13.5
Cc1cc(Nc2cc3cc(-c4c(OC[C@H]5CCN5)noc4C)ccn3n2)nc(C)n1 [Example 320, 5-[3-[[(2R)-azetidin-2-yl]methoxy]-5-methyl-isoxazol-4-yl]-N-(2,6-dimethylpyrimidin-4-yl)pyrazolo[1,5-a]pyridin-2-amine] | 50.8
Cc1cnc(Nc2cc3cc(-c4c(O[C@@H]5CN[C@H](C)C5)noc4C)ccn3n2)cn1 [Example 322, 5-[5-methyl-3-[(3S,5R)-5-methylpyrrolidin-3-yl]oxy-isoxazol-4-yl]-N-(5-methylpyrazin-2-yl)pyrazolo[1,5-a]pyridin-2-amine] | 46.3
Cc1cnc(Nc2cc3cc(-c4c(OC[C@H]5CCN5C)noc4C)ccn3n2)cn1 [Example 323, 5-[5-methyl-3-[[(2R)-1-methylazetidin-2-yl]methoxy]isoxazol-4-yl]-N-(5-methylpyrazin-2-yl)pyrazolo[1,5-a]pyridin-2-amine] | 25.6
Cc1onc(OC[C@H](c2ccccc2F)N(C)C)c1-c1ccn2nc(NC(=O)C3CC3)cc2c1 [Example 324, N-[5-[3-[(2S)-2-(dimethylamino)-2-(2-fluorophenyl)ethoxy]-5-methyl-isoxazol-4-yl]pyrazolo[1,5-a]pyridin-2-yl]cyclopropanecarboxamide] | 23.8
Cc1onc(OC[C@H](c2ccccn2)N(C)C)c1-c1ccn2nc(NC(=O)C3CC3)cc2c1 [Example 325, N-[5-[3-[(2S)-2-(dimethylamino)-2-(2-pyridyl)ethoxy]-5-methyl-isoxazol-4-yl]pyrazolo[1,5-a]pyridin-2-yl]cyclopropanecarboxamide] | 63.2
Cc1cc(Nc2cc3cc(-c4c(O[C@@H]5CN[C@H](C(F)F)C5)noc4C)ccn3n2)nc(C)n1 [Example 327, 5-[3-[(3S,5S)-5-(difluoromethyl)pyrrolidin-3-yl]oxy-5-methyl-isoxazol-4-yl]-N-(2,6-dimethylpyrimidin-4-yl)pyrazolo[1,5-a]pyridin-2-amine] | 42.8
Cc1onc(OC[C@H]2CCN2C)c1-c1ccc2nc(NC(=O)C3CC3)cn2c1 [Example 329, N-[6-[5-methyl-3-[[(2R)-1-methylazetidin-2-yl]methoxy]isoxazol-4-yl]imidazo[1,2-a]pyridin-2-yl]cyclopropanecarboxamide] | 35
CN1CC[C@H](Oc2cnn(C)c2-c2ccn3nc(Nc4ccc(C(F)(F)F)cn4)cc3c2)C1 [Example 339, 5-[2-methyl-4-[(3S)-1-methylpyrrolidin-3-yl]oxy-pyrazol-3-yl]-N-[5-(trifluoromethyl)-2-pyridyl]pyrazolo[1,5-a]pyridin-2-amine] | 68.5
CN1CC[C@H](Oc2cnn(C)c2-c2ccn3nc(Nc4cc(C(F)(F)F)ccn4)cc3c2)C1 [Example 340, 5-[2-methyl-4-[(3S)-1-methylpyrrolidin-3-yl]oxy-pyrazol-3-yl]-N-[4-(trifluoromethyl)-2-pyridyl]pyrazolo[1,5-a]pyridin-2-amine] | 55.4
CN1CC[C@H](Oc2cnn(C)c2-c2ccn3nc(Nc4cc5ccccc5nn4)cc3c2)C1 [Example 342, N-[5-[2-methyl-4-[(3S)-1-methylpyrrolidin-3-yl]oxy-pyrazol-3-yl]pyrazolo[1,5-a]pyridin-2-yl]cinnolin-3-amine] | 68.8
CN1CC[C@H](Oc2cnn(C)c2-c2ccn3nc(Nc4cnc5ccccc5n4)cc3c2)C1 [Example 343, N-[5-[2-methyl-4-[(3S)-1-methylpyrrolidin-3-yl]oxy-pyrazol-3-yl]pyrazolo[1,5-a]pyridin-2-yl]quinoxalin-2-amine] | 54.8
CN1CC[C@H](Oc2cnn(C)c2-c2ccn3nc(Nc4cc5ccccn5n4)cc3c2)C1 [Example 344, 5-[2-methyl-4-[(3S)-1-methylpyrrolidin-3-yl]oxy-pyrazol-3-yl]-N-pyrazolo[1,5-a]pyridin-2-yl-pyrazolo[1,5-a]pyridin-2-amine] | 56

Second part, the compound after the results:

IC50 [nM] | SMILES
44.3 | CCn1ncc(OC[C@@H]2CCNC2)c1-c1ccn2nc(NC(=O)C3CC3)cc2c1 [Example 312, N-[5-[2-ethyl-4-[[(3R)-pyrrolidin-3-yl]methoxy]pyrazol-3-yl]pyrazolo[1,5-a]pyridin-2-yl]cyclopropanecarboxamide]
30.4 | CN1CC(C)(COc2cnn(C)c2-c2ccn3nc(NC(=O)C4CC4)cc3c2)C1 [Example 314, N-[5-[4-[(1,3-dimethylazetidin-3-yl)methoxy]-2-methyl-pyrazol-3-yl]pyrazolo[1,5-a]pyridin-2-yl]cyclopropanecarboxamide]
14.1 | Cn1ncc(OC[C@H]2CCN2CC(F)(F)F)c1-c1ccn2nc(NC(=O)C3CC3)cc2c1 [Example 315, N-[5-[2-methyl-4-[[(2R)-1-(2,2,2-trifluoroethyl)azetidin-2-yl]methoxy]pyrazol-3-yl]pyrazolo[1,5-a]pyridin-2-yl]cyclopropanecarboxamide]
50.3 | Cc1onc(OC2CCNCC2)c1-c1ccn2nc(NC(=O)C3CC3)cc2c1 [Example 316, N-[5-[5-methyl-3-(4-piperidyloxy)isoxazol-4-yl]pyrazolo[1,5-a]pyridin-2-yl]cyclopropanecarboxamide]
51.8 | Cc1onc(OC[C@H]2C[C@@H](N)C2)c1-c1ccn2nc(NC(=O)C3CC3)cc2c1 [Example 319, N-[5-[3-[(3-aminocyclobutyl)methoxy]-5-methyl-isoxazol-4-yl]pyrazolo[1,5-a]pyridin-2-yl]cyclopropanecarboxamide]
52.6 | Cc1onc(OC[C@H]2N(C)CC2(C)C)c1-c1ccn2nc(NC(=O)C3CC3)cc2c1 [Example 321, N-[5-[5-methyl-3-[[(2S)-1,3,3-trimethylazetidin-2-yl]methoxy]isoxazol-4-yl]pyrazolo[1,5-a]pyridin-2-yl]cyclopropanecarboxamide]
60 | Cc1onc(OC[C@](C)(N)c2ccccc2)c1-c1ccn2nc(NC(=O)C3CC3)cc2c1 [Example 326, N-[5-[3-[(2R)-2-amino-2-phenyl-propoxy]-5-methyl-isoxazol-4-yl]pyrazolo[1,5-a]pyridin-2-yl]cyclopropanecarboxamide]
61.8 | Cc1onc(OC[C@@H](N)C2CC2)c1-c1ccn2nc(NC(=O)C3CC3)cc2c1 [Example 328, N-[5-[3-[(2S)-2-amino-2-cyclopropyl-ethoxy]-5-methyl-isoxazol-4-yl]pyrazolo[1,5-a]pyridin-2-yl]cyclopropanecarboxamide]
35.2 | Cc1snc(O[C@H]2CCNC2)c1-c1ccn2nc(NC(=O)C3CC3)cc2c1 [Example 330, N-[5-[5-methyl-3-[(3S)-pyrrolidin-3-yl]oxy-isothiazol-4-yl]pyrazolo[1,5-a]pyridin-2-yl]cyclopropanecarboxamide]
32.4 | Cc1snc(OC[C@H]2CNCCO2)c1-c1ccn2nc(NC(=O)C3CC3)cc2c1 [Example 331, N-[5-[5-methyl-3-[[(2R)-morpholin-2-yl]methoxy]isothiazol-4-yl]pyrazolo[1,5-a]pyridin-2-yl]cyclopropanecarboxamide]
58.3 | Cc1snc(OC[C@H]2CN(C)CCO2)c1-c1ccn2nc(NC(=O)C3CC3)cc2c1 [Example 332, N-[5-[5-methyl-3-[[(2R)-4-methylmorpholin-2-yl]methoxy]isothiazol-4-yl]pyrazolo[1,5-a]pyridin-2-yl]cyclopropanecarboxamide]
54 | CN1CCO[C@@H](COc2cnn(C)c2-c2ccn3nc(NC(=O)C4CC4)cc3c2)C1 [Example 333, N-[5-[2-methyl-4-[[(2R)-4-methylmorpholin-2-yl]methoxy]pyrazol-3-yl]pyrazolo[1,5-a]pyridin-2-yl]cyclopropanecarboxamide]
55.1 | Cn1ncc(OC[C@H]2C[C@H](N)C2)c1-c1ccn2nc(NC(=O)C3CC3)cc2c1 [Example 334, N-[5-[4-[(3-aminocyclobutyl)methoxy]-2-methyl-pyrazol-3-yl]pyrazolo[1,5-a]pyridin-2-yl]cyclopropanecarboxamide]
68.7 | Cn1ncc(O[C@@H]2CCNC2)c1-c1ccn2nc(NC(=O)C3CC3)cc2c1 [Example 335, N-[5-[2-methyl-4-[(3R)-pyrrolidin-3-yl]oxy-pyrazol-3-yl]pyrazolo[1,5-a]pyridin-2-yl]cyclopropanecarboxamide]
66.4 | C[C@@H]1C[C@H](Oc2cnn(C)c2-c2ccn3nc(NC(=O)C4CC4)cc3c2)CN1C [Example 336, N-[5-[4-[(3S,5R)-1,5-dimethylpyrrolidin-3-yl]oxy-2-methyl-pyrazol-3-yl]pyrazolo[1,5-a]pyridin-2-yl]cyclopropanecarboxamide]
53 | C[C@H]1C[C@H](Oc2cnn(C)c2-c2ccn3nc(NC(=O)C4CC4)cc3c2)CN1 [Example 338, N-[5-[2-methyl-4-[(3S,5S)-5-methylpyrrolidin-3-yl]oxy-pyrazol-3-yl]pyrazolo[1,5-a]pyridin-2-yl]cyclopropanecarboxamide]
57.7 | C[C@H]1CN[C@@H]1COc1cnn(C)c1-c1ccn2nc(NC(=O)C3CC3)cc2c1 [Example 341, N-[5-[2-methyl-4-[[(2S,3S)-3-methylazetidin-2-yl]methoxy]pyrazol-3-yl]pyrazolo[1,5-a]pyridin-2-yl]cyclopropanecarboxamide]
58.2 | Cn1ncc(OC[C@H]2CNC[C@@H]2O)c1-c1ccn2nc(NC(=O)C3CC3)cc2c1 [Example 345, N-[5-[4-[[(3R,4R)-4-hydroxypyrrolidin-3-yl]methoxy]-2-methyl-pyrazol-3-yl]pyrazolo[1,5-a]pyridin-2-yl]cyclopropanecarboxamide]
